From ChEMBL document CHEMBL2073926, “Cloning and functional expression of a mouse liver organic cation transporter” (Hepatology, 1999)

Experiments:
[1] = target: T1, Solute carrier family 22 member 1 (Mus musculus, UniProt O08966); assay: in vitro; conditions: xenopus laevis, probe TEA (140 uM)
T1 sequence (O08966 whole entry): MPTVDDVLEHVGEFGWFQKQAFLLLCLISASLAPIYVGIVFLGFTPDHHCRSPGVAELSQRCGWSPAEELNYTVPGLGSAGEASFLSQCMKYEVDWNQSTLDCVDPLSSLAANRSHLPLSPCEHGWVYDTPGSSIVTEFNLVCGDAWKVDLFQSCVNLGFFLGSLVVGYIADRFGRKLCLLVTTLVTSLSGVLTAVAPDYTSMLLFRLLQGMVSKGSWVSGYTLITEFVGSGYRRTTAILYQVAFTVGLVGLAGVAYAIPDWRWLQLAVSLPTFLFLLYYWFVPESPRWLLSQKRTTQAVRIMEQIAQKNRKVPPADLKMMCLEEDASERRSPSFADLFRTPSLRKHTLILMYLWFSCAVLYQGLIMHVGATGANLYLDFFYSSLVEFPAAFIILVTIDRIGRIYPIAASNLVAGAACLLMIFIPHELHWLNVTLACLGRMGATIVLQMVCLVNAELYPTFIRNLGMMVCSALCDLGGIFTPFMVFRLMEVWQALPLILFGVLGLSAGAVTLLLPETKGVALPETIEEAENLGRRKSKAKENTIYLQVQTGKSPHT
Description: TP_TRANSPORTER: inhibition of TEA uptake (TEA: 140 uM, Thiamine: 1000 uM) in Xenopus laevis oocytes

[2] = target: T1, Solute carrier family 22 member 1; assay: TP_TRANSPORTER: inhibition of TEA uptake (TEA: 140 uM, Procainamide: 10000 uM) in Xenopus laevis oocytes; type: functional, cell-based, Oocyte; parameters: scale not given: the % may be the effect or the level left; conditions: probe TEA (140 uM), read-out: Activity
[3] = substrate: CC[N+](CC)(CC)CC; assay: cells, lysate or membranes named

Cc1ncc(C[n+]2csc(CCO)c2C)c(N)n1 [THIAMINE ION]
activity at 1000 µM [1]: 12.7%

CCN(CC)CCNC(=O)c1ccc(N)cc1 [PROCAINAMIDE]
activity at 10000 uM [2]: 30.1%

B1: Solute carrier family 22 member 1 (Mus musculus) (protein)
chain: MPTVDDVLEHVGEFGWFQKQAFLLLCLISASLAPIYVGIVFLGFTPDHHCRSPGVAELSQRCGWSPAEELNYTVPGLGSAGEASFLSQCMKYEVDWNQSTLDCVDPLSSLAANRSHLPLSPCEHGWVYDTPGSSIVTEFNLVCGDAWKVDLFQSCVNLGFFLGSLVVGYIADRFGRKLCLLVTTLVTSLSGVLTAVAPDYTSMLLFRLLQGMVSKGSWVSGYTLITEFVGSGYRRTTAILYQVAFTVGLVGLAGVAYAIPDWRWLQLAVSLPTFLFLLYYWFVPESPRWLLSQKRTTQAVRIMEQIAQKNRKVPPADLKMMCLEEDASERRSPSFADLFRTPSLRKHTLILMYLWFSCAVLYQGLIMHVGATGANLYLDFFYSSLVEFPAAFIILVTIDRIGRIYPIAASNLVAGAACLLMIFIPHELHWLNVTLACLGRMGATIVLQMVCLVNAELYPTFIRNLGMMVCSALCDLGGIFTPFMVFRLMEVWQALPLILFGVLGLSAGAVTLLLPETKGVALPETIEEAENLGRRKSKAKENTIYLQVQTGKSPHT
Km [3]: 38 µM
